This passage reports IC50 results from ChEMBL document CHEMBL3886297, “Cinnamoyl inhibitors of transglutaminase” (2015).

For the experiment, the target named is T1, Protein-glutamine gamma-glutamyltransferase 2 (Cavia cutleri, UniProt P08587).
T1 sequence (P08587 whole entry): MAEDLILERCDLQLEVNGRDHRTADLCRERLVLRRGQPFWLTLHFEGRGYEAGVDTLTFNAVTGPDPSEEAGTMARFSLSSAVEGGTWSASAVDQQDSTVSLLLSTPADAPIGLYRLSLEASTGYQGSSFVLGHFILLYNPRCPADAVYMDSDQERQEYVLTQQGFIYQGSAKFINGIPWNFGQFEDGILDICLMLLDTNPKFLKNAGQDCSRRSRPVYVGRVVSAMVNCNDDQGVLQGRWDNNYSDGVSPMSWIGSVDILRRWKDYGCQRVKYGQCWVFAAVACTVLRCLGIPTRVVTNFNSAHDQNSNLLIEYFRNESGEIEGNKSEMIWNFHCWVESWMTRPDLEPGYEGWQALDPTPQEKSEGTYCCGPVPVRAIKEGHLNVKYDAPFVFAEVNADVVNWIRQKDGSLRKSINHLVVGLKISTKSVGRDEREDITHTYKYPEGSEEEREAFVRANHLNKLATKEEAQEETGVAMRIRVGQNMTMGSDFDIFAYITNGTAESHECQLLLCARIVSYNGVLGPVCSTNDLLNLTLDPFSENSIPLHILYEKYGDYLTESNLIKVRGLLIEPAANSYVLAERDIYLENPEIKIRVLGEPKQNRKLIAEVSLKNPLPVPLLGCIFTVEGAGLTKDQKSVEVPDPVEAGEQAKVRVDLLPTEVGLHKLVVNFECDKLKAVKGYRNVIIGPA
The experiment in a line: Enzyme Inhibition Assay: For enzymology studies of these compounds, recombinant guinea pig liver TGase was expressed in Escherichia coli and effectively purified (Gillet, S. M. F. G. et al J. N., Prot. Exp. & Purif. 2004, 33, 256). […] The mode of inhibition was determined for the representative lead compound.

Bounds are passed on as bounds.

For orientation: IC50 means the concentration needed to halve the response being measured. Turning to `O=C(/C=C/c1ccc([N+](=O)[O-])cc1)n1ccnc1`, the IC50 is more than 20 µM.

As for `O=C(/C=C/c1ccc([N+](=O)[O-])cc1)NCc1ccccc1`, the IC50 was more than 50 µM.
